# System: U87MG glioblastoma xenograft
# Assay: U87MG glioblastoma xenograft tumor growth in nude mice
# Type: in vivo
# Experimental: The following human glioblastoma xenograft model may be employed to ascertain the efficacy of the formulations and methods described herein. Human glioblastoma cell U87MG are inoculated subcutaneously into female nude mice (age 4-6 wks). Xenograft tumor growth is followed by measuring the tumor size using a caliper. Once tumor size reaches about 100 mm^3 (average), mice carrying the xenograft tumors are grouped and treated with different doses of the combination of TMZ and a multi-targeted kinase inhibitor. Likewise, human glioblastoma cell U373 may be used to establish a xenograft model.
# The combination of TMZ and a multi-targeted kinase inhibitor (e.g., sunitinib) for treating a cell proliferative disorder was examined using a human glioblastoma xenograft model. In particular, the glioblastoma model U87MG was used to evaluate the efficacy of multi-targeted kinase inhibitor sunitinib as a single agent compared to TMZ (Temozolomide, Temodar®), a chemotherapeutic drug clinically approved for treating brain tumor, as a single agent. In addition, this study looked at the efficacy of the combination of TMZ with sunitinib in comparison to the efficacy with either agent alone.
# In brief, nude mice were inoculated with U87-MG glioblastoma cells and the resultant tumors treated with control, or various concentrations of TMZ, sunitinib, or a combination of both TMZ and sunitinib. More specifically, female nude mice (strain NU/NU), aged 6-8 weeks old were purchased from Charles River Laboratory. Five million glioblastoma U87-MG were mixed 1:1 (volume:volume) with Matrigel (Cat. # 354234, BD Biosciences) on ice and mixtures were inoculated subcutaneously to the flank of each mouse. Dosing was initiated on day 8 after inoculation when the tumor size was approximately 100 mm^3. TMZ was administered qd, ip for five consecutive days. Sunitinib was administered qd, po for 9-12 days consecutive days (until the end of the studies). The dosing volume was approximately 0.1 ml. Tumor size and body weight was measured two to three times per week.
# There were 10 nude mice per dosing regimen.
Compound,"inhibition of tumor growth (Day 17 post inoculation, sunitinib alone 40 mpk qd po, Table 1 / FIG. 2)","inhibition of tumor growth (Day 17 post inoculation, sunitinib alone 80 mpk qd po, Table 1 / FIG. 2)","inhibition of tumor growth (Day 20 post inoculation, sunitinib alone 40 mpk qd po, Table 2 / FIG. 4)","inhibition of tumor growth (Day 20 post inoculation, sunitinib alone 80 mpk qd po, Table 2 / FIG. 4)","inhibition of tumor growth (Day 17 post inoculation (day 9 post dosing initiation), TMZ alone 20 mpk qd ip x5 days, Table 1 / FIG. 2)","inhibition of tumor growth (Day 17 post inoculation, TMZ alone 30 mpk (so in the source) qd ip x5 days, Table 1 / FIG. 2)","inhibition of tumor growth (Day 17 post inoculation, TMZ alone 40 mpk (so in the source) qd ip x5 days, Table 1 / FIG. 2)","inhibition of tumor growth (Day 20 post inoculation (day 12 post dosing initiation), TMZ alone 5 mpk qd ip x5 days, Table 2 / FIG. 4)","inhibition of tumor growth (Day 20 post inoculation, TMZ alone 20 mpk qd ip x5 days, Table 2 / FIG. 4)"
CCN(CC)CCNC(=O)c1c(C)[nH]c(/C=C2\C(=O)Nc3ccc(F)cc32)c1C [sunitinib],56%,82%,76%,83%,–,–,–,–,–
"Cn1nnc2c(C(N)=O)ncn2c1=O [TMZ, 3,4-dihydro-3-methyl-4-oxoimidazo[5,1-d]-as-tetazine-8-carboxamide]",–,–,–,–,96%,96%,98%,95%,102%

# Reference: US20100087499A1, “PHARMACEUTICAL COMPOSITIONS AND METHODS OF USING TEMOZOLOMIDE AND MULTI-TARGETED KINASE INHIBITORS” (SCHERING CORPORATION, priority 2007, published 2010)
